In patent US11541050B2, “Pyrimidine derivatives for the treatment of viral infections” (JANSSEN SCIENCES IRELAND UC, priority 2011, dated 2023):

Key:
[1] = tested on: human TLR8 mutant sequence comprising a deletion in the second leucine-rich repeat; experiment: TLR8 cellular NFκB-luc reporter assay, mutant TLR8 with deletion in the second leucine-rich repeat; format: cell-based; design: unit not given here; settings: lowest effective concentration, TLR8 mutant with deletion in second leucine-rich repeat
Outline: (§1)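 HEK293 cells transiently co-transfected with CMV-driven mutant TLR7 or TLR8 plasmid plus NFκB-luc reporter, cultured 48 h at 37 °C, then exposed to compound for 6 h at 37 °C, 5% CO2. Luciferase luminescence measured; dose-response curves from quadruplicates.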

[2] = biological target: T1, human TLR8 (wild type sequence) (Homo sapiens, UniProt Q9NR97); experiment: TLR8 cellular NFκB-luc reporter assay, wild type TLR8; format: cell-based; design: unit not given here; settings: lowest effective concentration; for TLR8-wt_LEC: wild type TLR8 (compounds 1-73); for TLR 8 wt LEC: wild type TLR8 (compounds 74 onward)
T1 construct: expressed in transfected cells; host or cells: HEK293
T1 sequence (Q9NR97 27-1041): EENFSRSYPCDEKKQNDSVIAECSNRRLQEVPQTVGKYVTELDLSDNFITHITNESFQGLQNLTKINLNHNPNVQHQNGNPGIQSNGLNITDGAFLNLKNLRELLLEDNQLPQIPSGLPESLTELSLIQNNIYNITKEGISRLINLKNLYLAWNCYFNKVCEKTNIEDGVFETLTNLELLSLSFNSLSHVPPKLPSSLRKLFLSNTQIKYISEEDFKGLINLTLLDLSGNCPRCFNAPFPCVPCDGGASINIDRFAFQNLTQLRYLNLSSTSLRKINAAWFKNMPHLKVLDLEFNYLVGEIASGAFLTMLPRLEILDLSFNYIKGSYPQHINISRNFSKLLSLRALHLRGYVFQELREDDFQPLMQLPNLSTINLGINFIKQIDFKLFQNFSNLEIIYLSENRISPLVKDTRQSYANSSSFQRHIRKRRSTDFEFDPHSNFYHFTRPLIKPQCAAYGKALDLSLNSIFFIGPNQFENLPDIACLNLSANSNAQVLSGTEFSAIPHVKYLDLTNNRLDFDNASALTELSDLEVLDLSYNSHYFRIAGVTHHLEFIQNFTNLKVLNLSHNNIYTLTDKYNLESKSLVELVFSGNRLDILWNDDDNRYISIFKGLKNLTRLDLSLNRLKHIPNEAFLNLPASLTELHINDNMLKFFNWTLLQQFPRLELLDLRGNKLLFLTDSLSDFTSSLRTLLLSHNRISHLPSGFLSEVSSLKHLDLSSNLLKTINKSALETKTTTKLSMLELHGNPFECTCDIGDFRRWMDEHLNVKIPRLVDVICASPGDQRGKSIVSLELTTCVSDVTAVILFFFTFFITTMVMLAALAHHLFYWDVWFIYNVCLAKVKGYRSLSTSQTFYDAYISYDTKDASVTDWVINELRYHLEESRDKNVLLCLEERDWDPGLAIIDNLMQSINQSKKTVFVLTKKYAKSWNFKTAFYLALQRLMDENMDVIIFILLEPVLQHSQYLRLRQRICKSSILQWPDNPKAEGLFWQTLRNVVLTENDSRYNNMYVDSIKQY
Outline: (§2)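 NFκB-driven luciferase in HEK293 transiently expressing TLR7 or TLR8, wild type or mutant lacking part of the second LRR; 6 h compound exposure; lowest effective concentration reported.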

[3] = tested on: human TLR7 mutant sequence comprising a deletion in the second leucine-rich repeat; experiment: TLR7 cellular NFκB-luc reporter assay, mutant TLR7 with deletion in the second leucine-rich repeat; format: cell-based; design: unit not given here; settings: lowest effective concentration, TLR7 mutant with deletion in second leucine-rich repeat
Outline: as §1

[4] = tested on: HCV replicon in Huh-7 luc/neo cells; experiment: Suppression of HCV replicon replication by conditioned media from compound-treated PBMC; format: cell-based, HCV type 1 b; settings: Hepatitis C virus, Huh-7; read-out: PBMC-HUH7_EC50
Outline: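 Readout is firefly luciferase from an HCV genotype 1b NS3-NS5B bicistronic replicon in Huh-7 cells, measured 24 h after adding conditioned medium. That medium came from overnight culture of compound-treated PBMC (2×10^5/well, human AB serum, at least two donors). Interferon α-2a was the reference.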

[5] = biological target: T2, human TLR7 (wild type sequence) (Homo sapiens, UniProt Q9NYK1); experiment: TLR7 cellular NFκB-luc reporter assay, wild type TLR7; format: cell-based; design: unit not given here; settings: lowest effective concentration, wild type TLR7 (compounds 74 onward)
T2 construct: expressed in transfected cells; host or cells: HEK293
T2 sequence (Q9NYK1 27-1049): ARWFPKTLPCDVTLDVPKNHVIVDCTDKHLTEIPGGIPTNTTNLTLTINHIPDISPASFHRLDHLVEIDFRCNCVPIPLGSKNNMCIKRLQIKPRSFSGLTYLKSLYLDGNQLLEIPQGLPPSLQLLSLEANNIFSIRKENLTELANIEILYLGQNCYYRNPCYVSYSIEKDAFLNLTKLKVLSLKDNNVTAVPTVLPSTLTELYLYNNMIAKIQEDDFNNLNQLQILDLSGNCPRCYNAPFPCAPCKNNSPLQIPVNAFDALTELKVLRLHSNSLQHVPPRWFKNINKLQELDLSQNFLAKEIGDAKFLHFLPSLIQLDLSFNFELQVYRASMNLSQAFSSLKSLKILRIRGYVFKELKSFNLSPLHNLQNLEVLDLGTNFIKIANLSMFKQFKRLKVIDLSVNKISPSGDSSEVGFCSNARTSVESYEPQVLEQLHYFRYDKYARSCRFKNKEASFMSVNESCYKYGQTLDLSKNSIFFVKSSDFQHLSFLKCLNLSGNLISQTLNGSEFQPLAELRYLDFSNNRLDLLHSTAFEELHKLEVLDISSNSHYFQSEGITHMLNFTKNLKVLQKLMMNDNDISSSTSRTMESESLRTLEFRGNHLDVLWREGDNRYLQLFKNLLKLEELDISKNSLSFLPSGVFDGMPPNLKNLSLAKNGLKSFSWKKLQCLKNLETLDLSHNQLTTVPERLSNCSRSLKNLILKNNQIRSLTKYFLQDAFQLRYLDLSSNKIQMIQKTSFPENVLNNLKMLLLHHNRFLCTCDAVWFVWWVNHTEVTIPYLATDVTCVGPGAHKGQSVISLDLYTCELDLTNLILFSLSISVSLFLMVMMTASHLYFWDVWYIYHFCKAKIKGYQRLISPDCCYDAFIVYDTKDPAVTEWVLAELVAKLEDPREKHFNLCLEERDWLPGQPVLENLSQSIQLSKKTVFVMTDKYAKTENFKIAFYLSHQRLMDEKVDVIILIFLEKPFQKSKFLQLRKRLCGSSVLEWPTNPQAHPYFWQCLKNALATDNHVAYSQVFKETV
Outline: as §2

[6] = tested on: interferon-stimulated responsive elements (ISRE) in HEK-ISREluc cells; experiment: Activation of ISRE promoter elements by conditioned media from compound-treated PBMC; format: cell-based, human; design: unit not given here; settings: conditioned media from compound-treated PBMC on HEK-ISREluc cells
Protocol: The potential of compounds to induce IFN-I was also evaluated by measuring the activation of interferon-stimulated responsive elements (ISRE) by conditioned media from PBMC. […] The plasmid pISRE-Luc from Clontech (ref. 631913) contains 5 copies of this ISRE element, followed by the firefly luciferase ORF. A HEK293 cell line stably transfected with pISRE-Luc (HEK-ISREluc) was established to profile of the conditioned PBMC cell culture media.
Briefly, PBMCs were prepared from buffy coats of at least two donors using a standard Ficoll centrifugation protocol. Isolated PBMCs were resuspended in RPMI medium supplemented with 10% human AB serum and 2×10^5 cells/well were dispensed into 384-well plates containing compounds (70 μL total volume). After overnight incubation, 10 μL of supernatant was transferred to 384-well plates containing 5×10^3 HEK-ISREluc cells/well in 30 μL (plated the day before). Following 24 hours of incubation, activation of the ISRE elements was measured by assaying luciferase activity using 40 μL/well Steady Lite Plus substrate (Perkin Elmer) and measured with ViewLux ultraHTS microplate imager (Perkin Elmer). The stimulating activity of each compound on the HEK-ISREluc cells was reported as LEC value, defined as the compound concentration applied to the PBMCs resulting in a luciferase activity at least two fold above the standard deviation of the assay. The LEC in turn indicates the degree of ISRE activation on transfer of a defined amount of PBMC culture medium. Recombinant interferon α-2a (Roferon-A) was used as a standard control compound.
For a given compound, the LEC value obtained from this assay were in the same range as the EC50 values obtained from the “suppression of HCV replication assay.” Thus, it is possible to compare the potential of compounds to induce IFN-I by PBMC, measured by either of the 2 assays.

TLR 8 wt LEC [2]	TLR 7 wt LEC [5]	Structure (SMILES)	TLR8-dIRR2_LEC [1]	TLR8-wt_LEC [2]	TLR7-dIRR2_LEC [3]	EC50 [4] [µM]	HEK-ISREluc LEC [6]
–	–	CCCCNc1nc(N)ncc1OCCOCCOC [Compound 61]	1.56	3.59	1.38	1.91	–
–	–	CCCCNc1nc(N)ncc1OCc1ccc(C(=O)O)cc1OC [Compound 67]	>24.59	>24.59	2.31	2.43	–
–	–	CCCCNc1nc(N)ncc1OC(C)c1ccccc1 (centres unmarked) [Compound 69]	2.22	6.43	3.75	6.16	–
–	–	CCCCNc1nc(N)ncc1Oc1ccccc1 [Compound 71]	>24.59	>24.59	>24.59	4.96	–
0.055	0.021	CCC[C@@H](CO)Nc1nc(N)ncc1OCc1ncc(C)c(OC)c1C [Compound 76]	–	–	–	–	0.008
0.623	0.449	CCCCNc1nc(N)ncc1OCc1cccc(CO)c1 [Compound 77]	–	–	–	–	0.137
0.329	1.620	CCCC[C@@H](CO)Nc1nc(N)ncc1OCc1cc(C)nn1C [Compound 79]	–	–	–	–	0.235
0.041	0.560	CCCC[C@@H](CO)Nc1nc(N)ncc1OCc1cccc(C(N)=O)n1 [Compound 80]	–	–	–	–	0.027
0.429	0.101	CCCC[C@@H](CCO)Nc1nc(N)ncc1OCc1cc(C)nn1C [Compound 81]	–	–	–	–	0.086
3.750	0.646	CCCCNc1nc(N)ncc1OCc1c[nH]nn1 [Compound 86]	–	–	–	–	0.131
–	–	CCC[C@@H](CCO)Nc1nc(N)ncc1OCc1[nH]ccc(=O)c1OC [Compound 88]	–	–	–	–	0.050
6.670	1.670	CCCC[C@@H](CCOC(=O)NCC)Nc1nc(N)ncc1OC [Compound 89]	–	–	–	–	0.526
